The target in one data set is LRRK2 WT (Homo sapiens (Human), UniProt Q5S007). As to the kind of experiment: LRRK2 wild-type ADP-Glo kinase assay. The data set is classed as biochemical. As to conditions: read-out: LRRK2 WT ADPGlo IC50. For orientation: ADP-Glo first removes unused ATP, then detects ADP through luciferase.
The nature of data set [1]: Rat brain disposition after oral gavage. It counts as in vivo, male Sprague-Dawley rats. To be noted: male, Sprague-Dawley, 1 h, mean ± stdev; for Kp at 1 h / Kp uu at 1 h: n=3. In a few lines:
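Male Sprague-Dawley rats (n=3) dosed orally at 10 or 5 mg/kg in 0.5% HPMC suspension; plasma and brain taken at 0.5 or 1 h. LC-MS/MS quantitation; Kp is total brain:plasma ratio, and Kp,uu was derived using rat fu in plasma and brain.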

Data set [2] is described as follows: Fraction unbound in rat plasma and brain homogenate by equilibrium dialysis. The data set is classed as in vitro ADME, male Sprague-Dawley rat. To be noted: 1 μM, equilibrium dialysis 5 h at 37° C.; for fubrain (% free): rat brain homogenate; for fuplasma (% free): rat plasma. In short, it runs like this:
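Male Sprague-Dawley rat plasma or brain homogenate (diluted 1:4 in buffer) dialysed against 100 mM sodium phosphate pH 7.4 across a 12-14 kDa membrane, 1 μM compound (≤0.5% DMSO), 5 h at 37° C with shaking. LC/MS-MS of both chambers; fu from buffer/donor ratio, corrected for dilution factor D=4 (brain) or 1 (plasma).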

A short description of data set [3]: Hepatic microsomal intrinsic clearance assay. It counts as in vitro ADME. As to conditions: for CLint scaled at 1 μM: pooled liver microsomes, pH 7.4, liver microsomes 0.5 mg/mL, NADPH, 1 hour at 37° C., LLOQ 0.36 L/h/kg. In a few lines:
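Compounds at 1 μM final were incubated with pooled liver microsomes (0.5 mg/mL) in phosphate buffer pH 7.4 at 37 °C for up to 60 min. Samples taken at 0, 5, 10, 20, 30 and 60 min were quenched with acetonitrile and analysed by LC-MS/MS.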
(Liver microsomes are a subcellular fraction often used to study metabolism.)

The mark [4] stands for this setting: brain, oral 5 mg/kg, n=3, read-out: Total brain concentration.
Setting [5] is: plasma, oral 5 mg/kg, n=3, read-out: Total plasma concentration.
The mark [6] stands for this setting: 0.5 nM kinase, 1.0 mM ATP, IC50=Ki,app+[E]/2, n≥2 tests.

SMILES strings stand for the structures. Read-outs that look alike come from different tables or passages of the source.

Chain of LRRK2 WT (Q5S007 970-2527): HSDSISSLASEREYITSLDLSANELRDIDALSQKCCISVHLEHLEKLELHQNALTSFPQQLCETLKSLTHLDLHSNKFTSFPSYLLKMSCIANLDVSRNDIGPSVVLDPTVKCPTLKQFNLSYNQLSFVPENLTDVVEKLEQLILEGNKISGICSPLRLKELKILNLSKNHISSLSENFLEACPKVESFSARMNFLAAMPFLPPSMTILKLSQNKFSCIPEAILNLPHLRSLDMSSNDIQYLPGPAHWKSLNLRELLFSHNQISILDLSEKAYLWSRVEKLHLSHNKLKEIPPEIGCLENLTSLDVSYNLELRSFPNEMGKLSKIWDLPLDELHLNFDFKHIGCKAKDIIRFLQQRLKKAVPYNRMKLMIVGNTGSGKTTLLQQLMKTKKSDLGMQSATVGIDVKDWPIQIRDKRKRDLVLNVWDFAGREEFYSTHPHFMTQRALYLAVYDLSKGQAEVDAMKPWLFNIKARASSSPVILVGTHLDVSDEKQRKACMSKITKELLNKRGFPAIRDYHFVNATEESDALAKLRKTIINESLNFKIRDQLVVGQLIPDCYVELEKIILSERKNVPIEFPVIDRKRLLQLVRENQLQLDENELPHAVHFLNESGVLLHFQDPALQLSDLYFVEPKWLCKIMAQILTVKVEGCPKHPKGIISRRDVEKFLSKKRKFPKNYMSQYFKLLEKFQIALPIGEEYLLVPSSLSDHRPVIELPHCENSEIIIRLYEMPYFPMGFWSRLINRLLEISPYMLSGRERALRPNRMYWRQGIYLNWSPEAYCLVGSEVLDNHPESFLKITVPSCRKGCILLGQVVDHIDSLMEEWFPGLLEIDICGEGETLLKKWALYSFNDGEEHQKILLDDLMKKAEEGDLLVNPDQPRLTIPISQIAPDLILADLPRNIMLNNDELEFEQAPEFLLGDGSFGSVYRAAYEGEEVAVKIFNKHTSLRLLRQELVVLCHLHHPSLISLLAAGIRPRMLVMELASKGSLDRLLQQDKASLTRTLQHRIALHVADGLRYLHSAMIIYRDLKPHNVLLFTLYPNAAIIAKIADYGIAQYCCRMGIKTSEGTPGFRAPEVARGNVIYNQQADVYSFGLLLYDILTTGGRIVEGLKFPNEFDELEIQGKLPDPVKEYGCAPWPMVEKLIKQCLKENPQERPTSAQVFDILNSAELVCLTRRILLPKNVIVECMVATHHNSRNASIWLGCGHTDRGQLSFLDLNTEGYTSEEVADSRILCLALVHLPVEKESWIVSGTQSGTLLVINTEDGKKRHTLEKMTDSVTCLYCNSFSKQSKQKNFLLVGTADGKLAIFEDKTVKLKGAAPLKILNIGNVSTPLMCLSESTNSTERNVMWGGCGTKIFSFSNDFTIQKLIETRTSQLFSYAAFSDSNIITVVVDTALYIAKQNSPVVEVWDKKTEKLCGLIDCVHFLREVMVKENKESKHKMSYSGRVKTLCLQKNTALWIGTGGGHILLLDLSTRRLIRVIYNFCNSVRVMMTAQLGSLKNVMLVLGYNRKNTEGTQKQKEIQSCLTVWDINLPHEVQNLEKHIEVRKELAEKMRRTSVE

With `COc1nc(C)ncc1-n1nc2c(c1C)Nc1ncc3c(Cl)nn(c3n1)CCCO2` [Example 22, 8-Chloro-2-(4-methoxy-2-methylpyrimidin-5-yl)-3-methyl-2,4,12,13-tetrahydro-11H-5,7-(azenometheno)dipyrazolo[3,4-b:5′,1′-g][1]oxa[4,6,8]triazacycloundecine], the IC50 (usually the concentration that gives 50% inhibition) at LRRK2 WT turned out to be 0.6 nM. Moreover, in data set [1] (brain, oral 5 mg/kg), the Kp at 1 h turned out to be 2.5 ± 0.4 and the Kp uu at 1 h stood at 1.02 ± 0.17. Also, in data set [1] (setting [4]), the concentration at 1 h turned out to be 216 ± 42 ng/g. For the same molecule, in data set [1] (setting [5]), the concentration at 1 h came to 86 ± 8 ng/mL. Further, in data set [2], the “fubrain (% free)” value is 6.8 % free and the “fuplasma (% free)” value amounted to 16.8 % free. Also, the CLint scaled – broadly, a measure of how fast metabolising enzymes remove a compound, apart from limits set by blood flow – at 1 μM in data set [3] is under 6 mL/min/kg.

With `COc1nccc(C)c1-n1nc2c(c1C)Nc1ncc3c(Cl)nn(c3n1)CCCO2` [Example 7, 8-Chloro-2-(2-methoxy-4-methylpyridin-3-yl)-3-methyl-2,4,12,13-tetrahydro-11H-5,7-(azenometheno)dipyrazolo[3,4-b:5′,1′-g][1]oxa[4,6,8]triazacycloundecine], the IC50 on LRRK2 WT (setting [6]) was determined as 0.78 nM. Moreover, in data set [1] (brain, oral 5 mg/kg), the Kp at 1 h amounted to 1.9 ± 0.3 and the Kp uu at 1 h was determined as 0.68 ± 0.12. Further, the concentration at 1 h in data set [1] (setting [4]) was 10 ± 2 ng/g. The concentration at 1 h in data set [1] (setting [5]) worked out at 6 ± 2 ng/mL. For the same molecule, in data set [2], the “fubrain (% free)” value turned out to be 7.5 % free and the “fuplasma (% free)” value was found to be 21.0 % free. In data set [3], this molecule had a CLint scaled at 1 μM of 16.2 mL/min/kg.

`COc1ncccc1-n1nc2c(c1C)Nc1ncc3c(Cl)nn(c3n1)CCCO2` [Example 1, 8-Chloro-2-(2-methoxypyridin-3-yl)-3-methyl-2,4,12,13-tetrahydro-11H-5,7-(azenometheno)dipyrazolo[3,4-b:5′,1′-g][1]oxa[4,6,8]triazacycloundecine]: the concentration for half-maximal inhibition (IC50) at LRRK2 WT (setting [6]) was found to be 0.46 nM. In addition, in data set [1] (brain, oral 10 mg/kg), the Kp at 1 h was determined as 2.6 ± 0.2 and the Kp uu at 1 h is 0.83 ± 0.07. Moreover, the concentration at 1 h in data set [1] (brain, oral 10 mg/kg, n=3, read-out: Total brain concentration) amounted to 620 ± 280 ng/g. Also, the concentration at 1 h in data set [1] (plasma, oral 10 mg/kg, n=3, read-out: Total plasma concentration) is 245 ± 121 ng/mL. Besides, in data set [2], the “fubrain (% free)” value is given as 4.7 % free and the “fuplasma (% free)” value stood at 14.7 % free. In data set [3], this molecule had a CLint scaled at 1 μM of 9.67 mL/min/kg.

As for `Cc1c2c(nn1-c1cccnc1C(C)(F)F)OCCCn1nc(Cl)c3cnc(nc31)N2` [Example 14, 8-Chloro-2-(2-(1,1-difluoroethyl)pyridin-3-yl)-3-methyl-2,4,12,13-tetrahydro-11H-5,7-(azenometheno)dipyrazolo[3,4-b:5′,1′-g][1]oxa[4,6,8]triazacycloundecine], the IC50 at LRRK2 WT (setting [6]) is 1.5 nM. In addition, in data set [1] (brain, oral 5 mg/kg), the Kp at 1 h worked out at 1.2 ± 0.1 and the Kp uu at 1 h turned out to be 0.49 ± 0.04. Further, the concentration at 1 h in data set [1] (setting [4]) is 347 ± 53 ng/g. The concentration at 1 h in data set [1] (setting [5]) came to 283 ± 57 ng/mL. In addition, in data set [2], the “fubrain (% free)” value is recorded as 5.8 % free and the “fuplasma (% free)” value stood at 14.6 % free. For the same molecule, in data set [3], the CLint scaled at 1 μM was 17.2 mL/min/kg.

Turning to `Cc1nc(C)c(-n2nc3c(c2C)Nc2ncc4c(Cl)nn(c4n2)CCCO3)cc1F` [Example 15, 8-Chloro-2-(5-fluoro-2,6-dimethylpyridin-3-yl)-3-methyl-2,4,12,13-tetrahydro-11H-5,7-(azenometheno)dipyrazolo[3,4-b:5′,1′-g][1]oxa[4,6,8]triazacycloundecine], at LRRK2 WT (setting [6]), the IC50 amounted to 0.66 nM. Also, in data set [1] (brain, oral 5 mg/kg), the Kp at 1 h came out at 1.8 ± 0.2 and the Kp uu at 1 h came to 0.81 ± 0.07. In data set [1] (setting [4]), the concentration at 1 h came to 254 ± 32 ng/g. Besides, the concentration at 1 h in data set [1] (setting [5]) worked out at 143 ± 8 ng/mL. In addition, in data set [2], the “fubrain (% free)” value stood at 5.0 % free and the “fuplasma (% free)” value amounted to 11.0 % free. This molecule showed a CLint scaled at 1 μM in data set [3] of 12 mL/min/kg.

Take `COc1ncc(C)cc1-n1nc2c(c1C)Nc1ncc3c(Cl)nn(c3n1)CCCO2` [Example 12, 8-Chloro-2-(2-methoxy-5-methylpyridin-3-yl)-3-methyl-2,4,12,13-tetrahydro-11H-5,7-(azenometheno)dipyrazolo[3,4-b:5′,1′-g][1]oxa[4,6,8]triazacycloundecine]: the IC50 on LRRK2 WT (setting [6]) is 0.63 nM. In data set [1] (brain, oral 5 mg/kg), the Kp at 1 h came to 1.9 ± 0.3 and the Kp uu at 1 h worked out at 0.85 ± 0.15. In addition, the concentration at 1 h in data set [1] (setting [4]) was 146 ± 56 ng/g. The concentration at 1 h in data set [1] (setting [5]) was 76 ± 23 ng/mL. Besides, in data set [2], the “fubrain (% free)” value worked out at 3.0 % free and the “fuplasma (% free)” value turned out to be 6.7 % free. In data set [3], this molecule had a CLint scaled at 1 μM of 16.8 mL/min/kg.

Regarding `COc1nc(C)ccc1-n1nc2c(c1C)Nc1ncc3c(Cl)nn(c3n1)CCCO2` [Example 13, 8-Chloro-2-(2-methoxy-6-methylpyridin-3-yl)-3-methyl-2,4,12,13-tetrahydro-11H-5,7-(azenometheno)dipyrazolo[3,4-b:5′,1′-g][1]oxa[4,6,8]triazacycloundecine], the IC50 at LRRK2 WT (setting [6]) is 0.33 nM. In data set [1] (brain, oral 5 mg/kg), the Kp at 1 h came out at 2.5 ± 0.1 and the Kp uu at 1 h came to 0.74 ± 0.01. For the same molecule, in data set [1] (setting [4]), the concentration at 1 h was determined as 496 ± 128 ng/g. Moreover, the concentration at 1 h in data set [1] (setting [5]) worked out at 199 ± 52 ng/mL. In data set [2], the “fubrain (% free)” value was 1.9 % free and the “fuplasma (% free)” value worked out at 7.4 % free. Also, the “Rate of metabolism classification (liver microsomal CLint)” value in data set [3] (based on liver microsomal CLint values of Table 6) is listed as “moderate to high rate of metabolism”. In data set [3], this molecule had a CLint scaled at 1 μM of 30.3 mL/min/kg.
